Patent US9944600B2, “Piperidine derivatives for GPR119 agonist” (CHONG KUN DANG PHARMACEUTICAL CORP., priority 2012, dated 2018)

Target: T1, human GPR119 receptor (Homo sapiens, UniProt Q8TDV5)
T1 construct: host or cells: GeneBLAzer T-Rex GPR 119 CHO-K1 DA cells (CHO-K1)
T1 sequence (Q8TDV5 1-335): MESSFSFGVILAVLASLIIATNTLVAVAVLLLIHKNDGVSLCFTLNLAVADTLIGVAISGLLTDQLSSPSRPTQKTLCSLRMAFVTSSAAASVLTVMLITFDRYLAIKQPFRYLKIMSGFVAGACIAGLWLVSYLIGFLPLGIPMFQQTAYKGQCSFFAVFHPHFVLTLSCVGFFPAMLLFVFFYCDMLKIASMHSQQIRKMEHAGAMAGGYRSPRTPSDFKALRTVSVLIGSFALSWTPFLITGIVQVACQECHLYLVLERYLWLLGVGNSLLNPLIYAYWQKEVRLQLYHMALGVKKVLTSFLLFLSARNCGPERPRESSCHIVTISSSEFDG
Assay: Activity test for human GPR119 receptor (GeneBLAzer T-Rex GPR 119 CHO-K1 DA cells, fluorescence reporter)
Format: cell-based
Conditions: 5 hours treatment; for % Activation: human GPR119 receptor expressing cell, test concentrations 0.1, 1, 10 μM (concentration not given); for activity at 0.1 µM: test compound conc. 0.1 μM; for activity at 0.1 µM / activity at 1 µM / activity at 10 µM: human GPR119 CHO-K1 reporter cells, ratio to vehicle control well, read-out: % Activation; for activity at 1 µM: test compound conc. 1 μM; for activity at 10 µM: test compound conc. 10 μM
Description: As a human GPR119 receptor expression cell for this test, the cell line “GeneBLAzer™ T-Rex GPR 119 CHO-K1 DA cells” that is commercially available from Invitrogen, was used. The cell was incubated in the DMEM media containing 1% dialyzed fetal bovine serum etc. The cell incubator was kept at constant temperature and constant humidity of 37° C., 5% CO2.
The human GPR119 receptor expressing cell was used to this test. Each of test compounds was added to be final concentrations of 0.1, 1, 10 μM in 96 well and tested in duplicate. A fixed amount of cell was added to each well of 96 well separately, and then treated with the test compound for 5 hours. After treatment of color development agent for 2 hours, the fluorescence value was determined with plate reader. To the luminous wavelength of control well, which was not treated with the agonist sample, but in which only a vehicle (i.e., cell) was contained, the ratio of the luminous wavelength of test well, which was treated with the agonist sample, was calculated, and then converted to obtain % value.
All the results were expressed as mean±SD, and each test groups and the control group were compared using student's t-test to adjudge the effects of each test groups.

For CC(C)(F)CN1CCC(COc2ccc(-c3ccc(C(=O)N4CCC[C@H]4C(N)=O)c(F)c3)c(C#N)c2)CC1 [Compound 1028], the “% Activation” value was 402%, the activity at 0.1 µM was 187% and the activity at 1 µM was 348%. The activity at 10 µM was 402%.

NC(=O)[C@@H]1CCCN1C(=O)c1ccc(-c2ccc(OCC3CCN(CC4(C(F)(F)F)CCC4)CC3)nc2)cc1F [Compound 722, (S)-1-(2-fluoro-4-(6-((1-((1-(trifluoromethyl)cyclobutyl)methyl)piperidin-4-yl)methoxy)pyridine-3-yl)benzoyl)pyrrolidine-2-carboxamide] was tested, and the activity at 0.1 µM was 198%, the activity at 1 µM was 269% and the activity at 10 µM was 261%.

O=C(c1ccc(-c2ccc(OCC3CCN(CC4(C(F)(F)F)CCC4)CC3)nc2)cc1F)N1CC[C@H](O)C1 [Compound 720, (8)-(2-fluoro-4-(6-((1-((1-(trifluoromethyl)cyclobutyl)methyl)piperidin-4-yl)methoxy)pyridine-3-yl)phenyl)(3-hydroxypyrrolidine-1-yl)methanone] was tested, and the activity at 0.1 µM was 160%, the activity at 1 µM was 228% and the activity at 10 µM was 262%.

Work on CC(C)(F)CN1CCC(COc2ccc(-c3ccc(C(=O)N4CCC[C@H]4C(N)=O)c(F)c3)cc2)CC1 [Compound 644, (S)-1-(3-fluoro-4′-((1-(2-fluoro-2-methylpropyl)piperidin-4-yl)methoxy)biphenylcarbonyl)pyrrolidine-2-carboxamide] yielded an activity at 0.1 µM of 213%, an activity at 1 µM of 295% and an activity at 10 µM of 294%.

Compound CC(C)(F)CN1CCC(COc2ccc(-c3ccc(C(=O)N4CC[C@H](O)C4)cc3)cc2)CC1 [Compound 554, (S)-(4′-((1-(2-fluoro-2-methylpropyl)piperidin-4-yl)methoxy)biphenyl-4-yl)(3-hydroxypyrrolidine-1-yl)methanone] has an activity at 0.1 µM of 141%, an activity at 1 µM of 219% and an activity at 10 µM of 279%.

NC(=O)[C@@H]1CCCN1C(=O)c1ccc(-c2ccc(OCC3CCN(CC4(C(F)(F)F)CCC4)CC3)cc2)cc1 [Compound 635, (S)-1-(4′-((1-((1-(trifluoromethyl)cyclobutyl)methyl)piperidin-4-yl)methoxy)biphenylcarbonyl)pyrrolidine-2-carboxamide] showed an activity at 0.1 µM of 265%, an activity at 1 µM of 305% and an activity at 10 µM of 239%.

For O=C(c1ccc(-c2ccc(OCC3CCN(CC4(C(F)(F)F)CC4)CC3)nc2)cc1)N1CCC(CO)CC1 [Compound 587, (4-(hydroxymethyl)piperidin-1-yl)(4-(6-((1-((1-(trifluoromethyl)cyclopropyl)methyl)piperidin-4-yl)methoxy)pyridine-3-yl)phenyl)methanone], the activity at 0.1 µM was 227%, the activity at 1 µM was 288% and the activity at 10 µM was 297%.

For O=C(c1ccc(-c2cnc(OCC3CCN(CC4(C(F)(F)F)CCC4)CC3)cn2)cc1F)N1CCC[C@@H](O)C1 [Compound 1013, (R)-(2-fluoro-4-(5-((1-((1-(trifluoromethyl)cyclobutyl)methyl)piperidin-4-yl)methoxy)pyrazine-2-yl)phenyl)(3-hydroxypiperidin-1-yl)methanone], the “% Activation” value was 490%, the activity at 0.1 µM was 410% and the activity at 1 µM was 490%. For the same compound, the activity at 10 µM was 426%.

In the case of NC(=O)[C@H]1CCCCN1C(=O)c1ccc(-c2ccc(OCC3CCN(CC4(C(F)(F)F)CCC4)CC3)c(F)c2)cc1 [Compound 886, (R)-1-(3′-fluoro-4′-((1-((1-(trifluoromethyl)cyclobutyl)methyl)piperidin-4-yl)methoxy)biphenylcarbonyl)piperidin-2-carboxamide], the activity at 0.1 µM was 164%, the activity at 1 µM was 241% and the activity at 10 µM was 246%.

CC(C)(F)CN1CCC(COc2ccc(-c3ccc(C(=O)N4CCC[C@@H]4CO)cc3)cc2)CC1 [Compound 555, (R)-(4′-((1-(2-fluoro-2-methylpropyl)piperidin-4-yl)methoxy)biphenyl-4-yl)(2-(hydroxymethyl)pyrrolidine-1-yl)methanone] gave an activity at 0.1 µM of 190%, an activity at 1 µM of 269% and an activity at 10 µM of 272%.

CC(C)(F)CN1CCC(COc2ccc(-c3ccc(C(=O)N4CCC[C@@H]4CO)c(F)c3)cc2)CC1 [Compound 641, (R)-(3-fluoro-4′-((1-(2-fluoro-2-methylpropyl)piperidin-4-yl)methoxy)biphenyl-4-yl)(2-(hydroxymethyl)pyrrolidine-1-yl)methanone] gave an activity at 0.1 µM of 167%, an activity at 1 µM of 220% and an activity at 10 µM of 246%.

For CN(CCO)C(=O)c1ccc(-c2ccc(OCC3CCN(CC(C)(C)F)CC3)cc2)cc1 [Compound 551, 4′-((1-(2-fluoro-2-methylpropyl)piperidin-4-yl)methoxy)-N-(2-hydroxyethyl)-N-methylbiphenyl-4-carboxamide], the activity at 0.1 µM was 135%, the activity at 1 µM was 232% and the activity at 10 µM was 288%.

NC(=O)[C@@H]1CCCN1C(=O)c1ccc(-c2ccc(OCC3CCN(CC4(C(F)(F)F)CCC4)CC3)c(F)c2)cc1 [Compound 837, (S)-1-(3′-fluoro-4′-((1-((1-(trifluoromethyl)cyclobutyl)methyl)piperidin-4-yl)methoxy)biphenylcarbonyl)pyrrolidine-2-carboxamide] gave an activity at 0.1 µM of 251%, an activity at 1 µM of 296% and an activity at 10 µM of 306%.

In the case of CS(=O)(=O)c1ccc(-c2ccc(OCC3CCN(CC4(C(F)(F)F)CCC4)CC3)cc2)cc1 [Compound 542, 4-((4′-(methylsulfonyl)biphenyl-4-yloxy)methyl)-1-((1-(trifluoromethyl)cyclobutyl)methyl)piperidine], the activity at 0.1 µM was 256%, the activity at 1 µM was 347% and the activity at 10 µM was 376%.

CCC(F)(CC)CN1CCC(COc2cnc(-c3ccc(C(=O)N4CCCC[C@@H]4C(N)=O)c(F)c3)nc2)CC1 [Compound 1055, (R)-1-(4-(5-((1-(2-ethyl-2-fluorobutyl)piperidin-4-yl)methoxy)pyrimidin-2-yl)-2-fluorobenzoyl)piperidine-2-carboxamide] was tested, and the activity at 0.1 µM was 407%, the activity at 1 µM was 474% and the activity at 10 µM was 408%.

CC(C)(F)CN1CCC(COc2ccc(-c3ccc(C(=O)N4CCOCC4)cc3)cc2)CC1 [Compound 517, (4′-((1-(2-fluoro-2-methylpropyl)piperidin-4-yl)methoxy)biphenyl-4-yl)(morpholino)methanone] gave an activity at 0.1 µM of 192%, an activity at 1 µM of 244% and an activity at 10 µM of 291%.

CC(C)(F)CN1CCC(COc2ccc(-c3ccc(C(=O)N4CC[C@@H](O)C4)cc3)cc2)CC1 [Compound 553, (R)-(4′-((1-(2-fluoro-2-methylpropyl)piperidin-4-yl)methoxy)biphenyl-4-yl)(3-hydroxypyrrolidine-1-yl)methanone] showed an activity at 0.1 µM of 149%, an activity at 1 µM of 204% and an activity at 10 µM of 253%.

In the case of CS(=O)(=O)c1ccc(-c2ccc(OCC3CCN(CC4(C(F)(F)F)CC4)CC3)cc2)cc1 [Compound 500, 4-((4′-(methylsulfonyl)biphenyl-4-yloxy)methyl)-1-((1-(trifluoromethyl)cyclopropyl)methyl)piperidine], the activity at 0.1 µM was 214%, the activity at 1 µM was 298% and the activity at 10 µM was 310%.

With CC(=O)N1CCN(C(=O)c2ccc(-c3ccc(OCC4CCN(CC(C)(C)F)CC4)cc3)cc2)CC1 [Compound 628, 1-(4-(4′-((1-(2-fluoro-2-methylpropyl)piperidin-4-yl)methoxy)biphenylcarbonyl)piperazin-1-yl)ethanone] the activity at 0.1 µM was 138%, the activity at 1 µM was 210% and the activity at 10 µM was 257%.

With CCC(F)(CC)CN1CCC(COc2ccc(-c3ccc(C(=O)N4CCC[C@H]4C(N)=O)cc3F)cc2C#N)CC1 [Compound 1119, (S)-1-(3′-cyano-4′-((1-(2-ethyl-2-fluorobutyl)piperidin-4-yl)methoxy)-2-fluorobiphenylcarbonyl)pyrrolidine-2-carboxamide] the activity at 0.1 µM was 406%, the activity at 1 µM was 428% and the activity at 10 µM was 482%.

O=C(c1ccc(-c2ccc(OCC3CCN(CC4(C(F)(F)F)CCC4)CC3)cc2)cc1)N1CCC[C@@H](O)C1 [Compound 794, (R)-(3-hydroxypiperidin-1-yl)(4′-((1-((1-(trifluoromethyl)cyclobutyl)methyl)piperidin-4-yl)methoxy)biphenyl-4-yl)methanone] was tested, and the activity at 0.1 µM was 256%, the activity at 1 µM was 296% and the activity at 10 µM was 252%.

CCC(F)(CC)CN1CCC(COc2ccc(-c3ccc(C(=O)N4CCC[C@H]4C(N)=O)c(F)c3)cc2C#N)CC1 [Compound 1000, (S)-1-(3′-cyano-4′-((1-(2-ethyl-2-fluorobutyl)piperidin-4-yl)methoxy)-3-fluorobiphenylcarbonyl)pyrrolidine-2-carboxamide] was tested, and the activity at 0.1 µM was 311%, the activity at 1 µM was 367% and the activity at 10 µM was 374%.
